Results published in EP0563686A1, “Utilization of 3 substituted amino isoxazole derivatives against endoparasites, new 3 substituted amino isoxazols and process for their preparation” (BAYER AG, priority 1992, dated 1993).

Tests used:
[1] = test system: Haemonchus contortus; assay: In vivo nematode test, Haemonchus contortus / sheep (faecal worm egg count before and after treatment); parameters: species or system Schaf; details: experimentally infected sheep, treated after prepatency, pure active in gelatin capsules, oral, dose giving complete cessation of egg excretion, read-out: Dosis effectiva
Text: Haemonchus contortus / Schaf
Experimentell mit Haemonchus contortus infizierte Schafe wurden nach Ablauf der Präpatenzzeit des Parasiten behandelt. Die Wirkstoffe wurden als reiner Wirkstoff in Gelatinekapseln oral appliziert.
(§1) Der Wirkungsgrad wird dadurch bestimmt, daß man die mit dem Kot ausgeschiedenen Wurmeier vor und nach der Behandlung quantitativ auszählt.
Ein völliges Sistieren der Eiausscheidung nach der Behandlung bedeutet, daß die Wärmer abgetrieben wurden oder so geschädigt sind, daß sie keine Eier mehr produzieren (Dosis effectiva).
(§2) Geprüfte Wirkstoffe und wirksame Dosierungen (Dosis effectiva) sind aus der nachfolgenden Tabelle ersichtlich.

[2] = test system: Trichostrongylus colubriformis; assay: In vivo nematode test, Trichostrongylus colubriformis / sheep (faecal worm egg count before and after treatment); parameters: species or system Schaf; details: experimentally infected sheep, treated after prepatency, pure active in gelatin capsules, oral, dose giving complete cessation of egg excretion, read-out: Dosis effectiva
Text: Trichostrongylus colubriformis / Schaf
Experimentell mit Trichostrongylus colubriformis infizierte Schafe wurden nach Ablauf der Präpatenzzeit des Parasiten behandelt. Die Wirkstoffe wurden als reiner Wirkstoff in Gelatinekapseln oral appliziert.
as §1
Ein völliges Sistieren der Eiausscheidung nach der Behandlung bedeutet, daß die Würmer abgetrieben wurden oder so geschädigt sind, daß sie keine Eier mehr produzieren (Dosis effectiva).
as §2

Structure (SMILES)	minimal effective dose [1]	minimal effective dose [2]
Brc1ccc(-c2cc(NC3CCCCC3)no2)cc1 [Beispiel 43]	10 mg/kg	
COc1ccc(-c2cc(NCCc3ccccc3)no2)cc1 [Beispiel 13]	10 mg/kg	
COc1ccc(-c2cc(NC3CC3)no2)cc1 [Beispiel 6]	10 mg/kg	10 mg/kg
CCNc1cc(-c2ccc(OC)cc2)on1 [Beispiel 4, 3-Ethylamino-5-(4-methoxyphenyl)-isoxazol]	10 mg/kg	10 mg/kg
CCNc1cc(-c2cccnc2)on1 [Beispiel 57]	10 mg/kg	10 mg/kg
COc1ccc(-c2cc(NCC3CC3)no2)cc1 [Beispiel 10]	10 mg/kg	10 mg/kg
CCNc1cc(-c2ccc(SC(F)(F)F)cc2)on1 [Beispiel 22]	10 mg/kg	10 mg/kg
CCNc1cc(-c2ccsc2)on1 [Beispiel 63]		10 mg/kg
